Reference: patent publication US20260265271A1, “Cereblon Ligands and Uses Thereof” (REGENTS OF THE UNIVERSITY OF MICHIGAN, priority 2022, published 2026)
pIC50: −log10 of the molar value. Where a name gives a salt, the structure may show the parent alone. Read-outs that look alike come from different tables or passages of the source.

Legend:
[1] = target: wild-type human CRBN protein (Homo sapiens, UniProt Q96SW2); test: biochemical
Experimental: The binding to cereblon (CRBN) was determined using the Cereblon Binding Kit (Cisbio, #64BDCRBNPEG) following the manufacturer's instruction. Briefly, serially diluted compounds were incubated with GST-tagged wild-type human CRBN protein, XL665-labelled Thalidomide and Europium Cryptate labelled GST antibody at room temperature for about 3 hours.

[2] = target: T1, IKZF2 (Homo sapiens, UniProt Q96SW2+Q9UKS7); test: IKZF2 HiBiT degradation assay (Jurkat-IKZF2-HiBiT); type: cell-based; settings: for DC50: read-out: IKZF2 degradation DC50; for Dmax: read-out: IKZF2 degradation Dmax (%)
T1 construct: host or cells: Jurkat-IKZF2-HiBiT
Experimental: Degradation of IKZF2 protein was determined by IKZF2 HiBiT assay using the Jurkat-IKZF2-HiBiT (Promega) cell line. […] Compounds were serially diluted in culture medium, and 20 μl of the diluted compounds were added to the appropriate wells of the plate. After the addition of compounds, the cells were incubated at 37° C. in an atmosphere of 5% CO2 for 24 hours. At the end of treatment, 40 ul of Nano-Glo HiBiT Lytic Detection Reagent (Promega) was added to each well, and then the plates were incubated at room temperature for 10-20 minutes. The luminescent signal was measured using a CALRIOstar plate reader (BMG Labtech). The readings were normalized to the DMSO-treated cells and the IC50 was calculated by nonlinear regression (four parameters sigmoid fitted with variable slope, least squares fit, and no constraint) analysis using the GraphPad Prism 8 software.

[3] = Jurkat-IKZF2-HiBiT cells, 24 hours

Sequence of wild-type human CRBN protein (Q96SW2 whole entry): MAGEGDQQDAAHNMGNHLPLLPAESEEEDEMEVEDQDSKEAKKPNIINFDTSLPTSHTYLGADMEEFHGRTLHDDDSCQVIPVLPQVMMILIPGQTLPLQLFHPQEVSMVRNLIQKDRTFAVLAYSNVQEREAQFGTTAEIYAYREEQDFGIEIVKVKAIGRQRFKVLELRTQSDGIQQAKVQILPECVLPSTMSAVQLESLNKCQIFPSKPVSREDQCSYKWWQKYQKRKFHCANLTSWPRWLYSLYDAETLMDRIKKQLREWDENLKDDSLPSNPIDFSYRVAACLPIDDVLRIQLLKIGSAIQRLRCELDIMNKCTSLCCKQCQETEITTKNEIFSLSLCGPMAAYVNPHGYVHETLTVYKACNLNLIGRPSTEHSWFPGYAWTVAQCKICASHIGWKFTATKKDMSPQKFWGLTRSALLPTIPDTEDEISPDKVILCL
T1 sequence (Q9UKS7 whole entry): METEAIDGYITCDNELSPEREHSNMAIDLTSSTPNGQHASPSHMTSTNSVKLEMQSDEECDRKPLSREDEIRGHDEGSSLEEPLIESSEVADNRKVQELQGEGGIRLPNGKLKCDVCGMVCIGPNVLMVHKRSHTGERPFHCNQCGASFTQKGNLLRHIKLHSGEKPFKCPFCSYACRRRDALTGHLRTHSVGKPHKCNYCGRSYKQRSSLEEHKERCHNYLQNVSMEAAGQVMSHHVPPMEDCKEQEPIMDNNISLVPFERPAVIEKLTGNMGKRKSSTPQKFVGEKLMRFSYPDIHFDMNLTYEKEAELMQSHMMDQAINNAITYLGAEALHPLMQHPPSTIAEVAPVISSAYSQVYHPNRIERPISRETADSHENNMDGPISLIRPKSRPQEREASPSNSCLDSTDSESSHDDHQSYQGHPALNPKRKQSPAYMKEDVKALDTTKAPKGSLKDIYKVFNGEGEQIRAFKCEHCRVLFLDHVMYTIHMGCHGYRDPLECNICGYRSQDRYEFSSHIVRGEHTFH
T1 sequence (Q96SW2 whole entry): as the sequence (Q96SW2 whole entry) above
T1 sequence (Q16531 2-1140 partner limits assumed): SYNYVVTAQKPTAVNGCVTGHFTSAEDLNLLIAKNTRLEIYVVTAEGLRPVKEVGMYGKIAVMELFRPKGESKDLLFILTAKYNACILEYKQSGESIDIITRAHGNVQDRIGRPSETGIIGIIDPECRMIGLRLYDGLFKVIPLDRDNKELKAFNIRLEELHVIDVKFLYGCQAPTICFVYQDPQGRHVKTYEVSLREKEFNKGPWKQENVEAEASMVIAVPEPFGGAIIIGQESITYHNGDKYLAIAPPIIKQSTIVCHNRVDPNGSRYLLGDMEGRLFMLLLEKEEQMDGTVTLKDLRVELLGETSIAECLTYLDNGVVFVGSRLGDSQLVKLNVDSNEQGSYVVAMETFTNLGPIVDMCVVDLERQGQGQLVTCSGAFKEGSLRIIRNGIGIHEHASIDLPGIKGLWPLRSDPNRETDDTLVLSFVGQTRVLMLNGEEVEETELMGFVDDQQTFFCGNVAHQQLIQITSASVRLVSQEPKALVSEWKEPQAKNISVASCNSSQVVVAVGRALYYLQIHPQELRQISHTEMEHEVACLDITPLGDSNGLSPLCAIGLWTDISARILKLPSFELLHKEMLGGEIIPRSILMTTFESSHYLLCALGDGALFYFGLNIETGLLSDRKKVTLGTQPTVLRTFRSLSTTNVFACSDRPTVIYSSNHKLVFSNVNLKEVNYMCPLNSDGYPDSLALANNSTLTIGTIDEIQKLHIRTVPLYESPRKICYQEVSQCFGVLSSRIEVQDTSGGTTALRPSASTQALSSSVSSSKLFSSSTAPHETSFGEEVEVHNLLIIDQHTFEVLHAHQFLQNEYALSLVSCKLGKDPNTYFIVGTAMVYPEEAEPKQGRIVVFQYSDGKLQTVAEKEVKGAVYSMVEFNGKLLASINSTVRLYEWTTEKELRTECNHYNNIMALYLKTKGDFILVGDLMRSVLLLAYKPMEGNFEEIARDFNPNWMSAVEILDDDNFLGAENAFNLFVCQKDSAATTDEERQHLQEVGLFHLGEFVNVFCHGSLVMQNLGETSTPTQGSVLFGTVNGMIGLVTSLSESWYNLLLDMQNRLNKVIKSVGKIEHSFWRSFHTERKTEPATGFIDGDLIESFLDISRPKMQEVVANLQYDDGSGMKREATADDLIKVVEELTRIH

| Structure (SMILES) | pIC50 [1] | DC50 [2, 3] [nM] | Dmax [2] [%] | Dmax [2, 3] [%] |
| --- | --- | --- | --- | --- |
| O=C1CCC(N2Cc3c(ccc4c3N3CCNC[C@H]3CO4)C2=O)C(=O)N1 (stereo in doubt) [Compound B16, (R)-3-((S)-3-oxo-1,3,7,7a,8,9,10,11-octahydro-2H-pyrazino[1′,2′:4,5][1,4]oxazino[3,2-e]isoindol-2-yl)piperidine-2,6-dione] | 5.85 | – | – | – |
| O=C1CCC(N2Cc3cc4c(cc3C2=O)OC[C@@H]2CNCCN42)C(=O)N1 (stereo partly drawn) [Compound B1, 3-((S)-8-oxo-1,2,3,4,4a,5,8,10-octahydro-9H-pyrazino[1′,2′:4,5][1,4]oxazino[2,3-f]isoindol-9-yl)piperidine-2,6-dione hydrochloride salt] | 5.68 | – | – | – |
| O=C1CC[C@@H](N2Cc3cc4c(cc3C2=O)OC[C@@H]2CNCCN42)C(=O)N1 [Compound B2, (R)-3-((S)-8-oxo-1,2,3,4,4a,5,8,10-octahydro-9H-pyrazino[1′,2′:4,5][1,4]oxazino[2,3-f]isoindol-9-yl)piperidine-2,6-dione] | 5.28 | – | – | – |
| CC(C)(C)OC(=O)N1CCN2c3cc4c(cc3OC[C@@H]2C1)C(=O)N([C@H]1CCC(=O)NC1=O)C4 [Compound B3, (S)-tert-butyl (4aS)-9-(2,6-dioxopiperidin-3-yl)-8-oxo-1,2,4a,5,9,10-hexahydro-8H-pyrazino[1′,2′:4,5][1,4]oxazino[2,3-f]isoindole-3(4H)-carboxylate] | 5.77 | – | – | – |
| CC(C)(C)OC(=O)N1CCN2c3cc4c(cc3OC[C@@H]2C1)C(=O)N([C@@H]1CCC(=O)NC1=O)C4 [Compound B4, (R)-tert-butyl (4aS)-9-(2,6-dioxopiperidin-3-yl)-8-oxo-1,2,4a,5,9,10-hexahydro-8H-pyrazino[1′,2′:4,5][1,4]oxazino[2,3-f]isoindole-3(4H)-carboxylate] | 5.46 | – | – | – |
| CN1CCN2c3cc4c(cc3OC[C@@H]2C1)C(=O)N(C1CCC(=O)NC1=O)C4 (stereo partly drawn) [Compound B5, 3-((S)-3-methyl-8-oxo-1,2,3,4,4a,5,8,10-octahydro-9H-pyrazino[1′,2′:4,5][1,4]oxazino[2,3-f]isoindol-9-yl)piperidine-2,6-dione] | 6.04 | – | – | – |
| O=C1CCC(N2Cc3cc4c(cc3C2=O)OC[C@H]2CNCCN42)C(=O)N1 (stereo partly drawn) [Compound B6, 3-((R)-8-oxo-1,2,3,4,4a,5,8,10-octahydro-9H-pyrazino[1′,2′:4,5][1,4]oxazino[2,3-f]isoindol-9-yl)piperidine-2,6-dione trifluoroacetate salt] | 5.51 | – | – | – |
| Cc1ccc(C(=O)Nc2cccc(CN3CCN4c5cc6c(cc5OC[C@@H]4C3)C(=O)N([C@H]3CCC(=O)NC3=O)C6)c2)cc1 [Compound C23, N-(3-(((S)-9-((S)-2,6-dioxopiperidin-3-yl)-8-oxo-1,2,4a,5,9,10-hexahydro-8H-pyrazino[1′,2′:4,5][1,4]oxazino[2,3-f]isoindol-3(4H)-yl)methyl)phenyl)-4-methylbenzamide] | – | 18 | 77 | – |
| O=C1CC[C@H](N2Cc3cc4c(cc3C2=O)OC[C@@H]2CN(Cc3cccc(NC(=O)c5ccc(Cl)cc5)c3)CCN42)C(=O)N1 [Compound C24, 4-chloro-N-(3-(((S)-9-((S)-2,6-dioxopiperidin-3-yl)-8-oxo-1,2,4a,5,9,10-hexahydro-8H-pyrazino[1′,2′:4,5][1,4]oxazino[2,3-f]isoindol-3(4H)-yl)methyl)phenyl)benzamide] | – | 25 | 77 | – |
| O=C1CC[C@H](N2Cc3cc4c(cc3C2=O)OC[C@@H]2CN(Cc3cccc(NC(=O)c5ccccc5Cl)c3)CCN42)C(=O)N1 [Compound C25, 2-chloro-N-(3-(((S)-9-((S)-2,6-dioxopiperidin-3-yl)-8-oxo-1,2,4a,5,9,10-hexahydro-8H-pyrazino[1′,2′:4,5][1,4]oxazino[2,3-f]isoindol-3(4H)-yl)methyl)phenyl)benzamide] | – | > 1000 | 45 | – |
| CC(=O)Nc1cccc(CN2CCN3c4cc5c(cc4OC[C@@H]3C2)C(=O)N([C@H]2CCC(=O)NC2=O)C5)c1 [Compound C26, N-(3-(((S)-9-((S)-2,6-dioxopiperidin-3-yl)-8-oxo-1,2,4a,5,9,10-hexahydro-8H-pyrazino[1′,2′:4,5][1,4]oxazino[2,3-f]isoindol-3(4H)-yl)methyl)phenyl)acetamide] | – | > 1000 | 33 | – |
| COc1ccc(C(=O)N(C)c2cccc(CN3CCN4c5cc6c(cc5OC[C@@H]4C3)C(=O)N([C@H]3CCC(=O)NC3=O)C6)c2)cc1 [Compound C27, N-(3-(((S)-9-((S)-2,6-dioxopiperidin-3-yl)-8-oxo-1,2,4a,5,9,10-hexahydro-8H-pyrazino[1′,2′:4,5][1,4]oxazino[2,3-f]isoindol-3(4H)-yl)methyl)phenyl)-4-methoxy-N-methylbenzamide] | – | > 10000 | 21 | – |
| O=C1CC[C@H](N2Cc3cc4c(cc3C2=O)OC[C@@H]2CN(Cc3cccc(NS(=O)(=O)c5ccccc5)c3)CCN42)C(=O)N1 [Compound C28, N-(3-(((S)-9-((S)-2,6-dioxopiperidin-3-yl)-8-oxo-1,2,4a,5,9,10-hexahydro-8H-pyrazino[1′,2′:4,5][1,4]oxazino[2,3-f]isoindol-3(4H)-yl)methyl)phenyl)benzenesulfonamide] | – | > 1000 | 11 | – |
| O=C1CC[C@H](N2Cc3cc4c(cc3C2=O)OC[C@@H]2CN(CC3CCCC3)CCN42)C(=O)N1 [Compound C29, (S)-3-((S)-3-(cyclopentylmethyl)-8-oxo-1,2,3,4a,5,8,10-octahydro-9H-pyrazino[1′,2′:4,5][1,4]oxazino[2,3-f]isoindol-9-yl)piperidine-2,6-dione] | – | 402 | 61 | – |
| O=C1CCC(N2Cc3cc4c(cc3C2=O)OC[C@H]2CN(CC3CCCC3)CCN42)C(=O)N1 (stereo partly drawn) [Compound C30, 3-((R)-3-(cyclopentylmethyl)-8-oxo-1,2,3,4,4a,5,8,10-octahydro-9H-pyrazino[1′,2′:4,5][1,4]oxazino[2,3-f]isoindol-9-yl)piperidine-2,6-dione] | – | > 1000 | 0 | – |
| O=C1CC[C@H](N2Cc3cc4c(cc3C2=O)OC[C@@H]2CN(CC3CCC3)CCN42)C(=O)N1 [Compound C31, (S)-3-((S)-3-(cyclobutylmethyl)-8-oxo-1,2,3,4,4a,5,8,10-octahydro-9H-pyrazino[1′,2′:4,5][1,4]oxazino[2,3-f]isoindol-9-yl)piperidine-2,6-dione] | – | 1260 | 58 | – |
| O=C1CC[C@H](N2Cc3cc4c(cc3C2=O)OC[C@@H]2CN(CCC3CCCCC3)CCN42)C(=O)N1 [Compound C32, (S)-3-((S)-3-(2-cyclohexylethyl)-8-oxo-1,2,3,4,4a,5,8,10-octahydro-9H-pyrazino[1′,2′:4,5][1,4]oxazino[2,3-f]isoindol-9-yl)piperidine-2,6-dione] | – | 324 | 71 | – |
| C[C@H]1CC[C@H](CN2CCN3c4cc5c(cc4OC[C@@H]3C2)C(=O)N([C@H]2CCC(=O)NC2=O)C5)CC1 [Compound C33, (S)-3-((S)-3-(((1r,4S)-4-methylcyclohexyl)methyl)-8-oxo-1,2,3,4,4a,5,8,10-octahydro-9H-pyrazino[1′,2′:4,5][1,4]oxazino[2,3-f]isoindol-9-yl)piperidine-2,6-dione] | – | 515 | 67 | – |
| CC1(C)CCC(CN2CCN3c4cc5c(cc4OC[C@@H]3C2)C(=O)N([C@H]2CCC(=O)NC2=O)C5)CC1 [Compound C34, (S)-3-((S)-3-((4,4-dimethylcyclohexyl)methyl)-8-oxo-1,2,3,4,4a,5,8,10-octahydro-9H-pyrazino[1′,2′:4,5][1,4]oxazino[2,3-f]isoindol-9-yl)piperidine-2,6-dione] | – | 414 | 68 | – |
| O=C1CC[C@H](N2Cc3cc4c(cc3C2=O)OC[C@@H]2CN(CC3CCC5(CC3)COC5)CCN42)C(=O)N1 [Compound C35, (S)-3-((S)-3-((2-oxaspiro[3.5]nonan-7-yl)methyl)-8-oxo-1,2,3,4,4a,5,8,10-octahydro-9H-pyrazino[1′,2′:4,5][1,4]oxazino[2,3-f]isoindol-9-yl)piperidine-2,6-dione] | – | 933 | 66 | – |
| O=C1CC[C@H](N2Cc3cc4c(cc3C2=O)OC[C@@H]2CN(CC3CC5CCC3C5)CCN42)C(=O)N1 (stereo partly drawn) [Compound C36, (3S)-3-((4aS)-3-(bicyclo[2.2.1]heptan-2-ylmethyl)-8-oxo-1,2,3,4,4a,5,8,10-octahydro-9H-pyrazino[1′,2′:4,5][1,4]oxazino[2,3-f]isoindol-9-yl)piperidine-2,6-dione] | – | 376 | 68 | – |
| O=C1CC[C@H](N2Cc3cc4c(cc3C2=O)OC[C@@H]2CN(CC3CC5CCC3CC5)CCN42)C(=O)N1 (stereo partly drawn) [Compound C37, (3S)-3-((4aS)-3-(bicyclo[2.2.2]octan-2-ylmethyl)-8-oxo-1,2,3,4,4a,5,8,10-octahydro-9H-pyrazino[1′,2′:4,5][1,4]oxazino[2,3-f]isoindol-9-yl)piperidine-2,6-dione] | – | 318 | 69 | – |
| CC(C)(C)OC(=O)N1CCC2(CCC(CN3CCN4c5cc6c(cc5OC[C@@H]4C3)C(=O)N([C@H]3CCC(=O)NC3=O)C6)CC2)CC1 [Compound C38, tert-butyl 9-(((S)-9-((S)-2,6-dioxopiperidin-3-yl)-8-oxo-1,2,4a,5,9,10-hexahydro-8H-pyrazino[1′,2′:4,5][1,4]oxazino[2,3-f]isoindol-3(4H)-yl)methyl)-3-azaspiro[5.5]undecane-3-carboxylate] | – | 424 | 57 | – |
| O=C1CCC(N2Cc3cc(C4CCN(Cc5ccccc5)CC4)ccc3C2=O)C(=O)N1 (centres unmarked) [DKY709] | – | 62 | – | 67 |
